Measured values published in patent US12617759B2, “Modifier of four-membered ring derivative, preparation method and application thereof” (Shanghai Hansoh Biomedical Co., Ltd., priority 2019, dated 2026).

Columns and labels:
[1] = Stability in human liver microsome in vitro; type: in vitro ADME; conditions: for half-life at 1 μM / microsomal CLint at 1 μM: human liver microsomes, pH 7.4, 1 μM compound, NADPH/UDPGA; for half-life at 1 μM: read-out: Half life (t1/2); for microsomal CLint at 1 μM: read-out: Intrinsic clearance rate (CLint)
Protocol: (§1) To evaluate the metabolic stability of the compounds of the present invention in liver microsome in vitro.
(§2) Formulation of the working solution of the compound: 2 μL of the stock solution of the compound was added to 998 μL of phosphate buffer, and the final concentration was 20 μM.
(§3) 78.1 μL of 20 mg/mL microsome was diluted to 2.5 mL with 100 mM phosphate buffer and mixed well, and the final concentration was 0.625 mg/mL.
(§4) 33.3 mg of NADPH and 25.8 mg of UDPGA were weighed respectively, followed by the addition of 2 mL of 100 mM phosphate buffer. The final concentrations were 20 mM.
(§5) 1 mg of Alamethicin was weighed, to which 200 μL of DMSO was added to obtain a 5 mg/mL solution. 10 μL of this solution was added to 990 μL of phosphate buffer (pH 7.4), and the final concentration was 50 μg/mL.
(§6) 400 μL of the formulated liver microsome, 25 μL of the working solution of the compound (10 μM) and 25 μL of Alamethicin (50 μg/mL) were added to a 96-well plate successively, which was then pre-incubated at 37° C. for 10 min. 50 μL of the formulated NADPH/UDPGA was added to initiate the reaction, and the plate was incubated at 37° C. The total volume of the reaction system was 500 μL. The final contents of the components are as follows:
(§7) […] The resulting sample was centrifuged at 4000 g for 10 min, and the supernatant was collected for LC-MS/MS analysis.

[2] = Stability in rat liver microsome in vitro; type: in vitro ADME, SD rat; conditions: for half-life at 1 μM / microsomal CLint at 1 μM: SD, rat liver microsomes, pH 7.4, 1 μM compound, NADPH/UDPGA; for half-life at 1 μM: read-out: Half life (t1/2); for microsomal CLint at 1 μM: read-out: Intrinsic clearance rate (CLint)
Protocol: as §1, §2, §3, §4, §5, §6, §7

[3] = Stability in dog liver microsome in vitro; type: in vitro ADME; conditions: for half-life at 1 μM / microsomal CLint at 1 μM: dog liver microsomes, pH 7.4, 1 μM compound, NADPH/UDPGA; for half-life at 1 μM: read-out: Half life (t1/2); for microsomal CLint at 1 μM: read-out: Intrinsic clearance rate (CLint)
Protocol: as §1, §2, §3, §4, §5, §6, §7

[4] = molecular target: T1, Human Dopamine D3 Receptor membrane (Homo sapiens, UniProt P35462); experiment: Radioligand binding assay, dopamine D3 receptor ([3H]-methylspiperone)
T1 construct: purchased PerkinElmer ES-173-M400UA
Protocol: The objective of this test example is to determine the affinity of the compounds for dopamine D3 receptor.
(§8) 0.5 to 5 μL of the test compounds (0.005 nM to 100 nM, 10 concentrations in total) and 100 μL of buffer were added to a 96-well assay plate. 0.5 μL of cell membrane and 300 μL of buffer were added to each well. [^3H]-methylspiperone was added to the buffer, and the plate was incubated at 27° C. for 30 min. The […]-96 GF/B filter plate pre-incubated with 0.5% PEI for 1 h was washed twice with the buffer (1 mL/well). The cell membrane suspension was added to the […]-96 GF/B filter plate, washed 4 times, and incubated at 55° C. for 10 min. 40 μL of ULTIMA GOLD was added to each well, and liquid scintillation counting was carried out.
(§9) The CPM (Counts per minute) values were determined by TopCount. […] The 10 concentrations of the compound were from 100 nM to 0.005 nM after 3-fold dilution of the reaction system. The percent inhibition rate and ten-point concentration data were fitted to the parametric nonlinear logistic equation by using GraphPad prism to calculate the IC50 values of the compound.

D3 receptor = molecular target: T2, D3 receptor (Homo sapiens, UniProt P35462); experiment: cAMP content in cells stably expressing D3 receptors (CHO-D3); type: cell-based; conditions: forskolin, agonistic activity
T2 construct: expressed in transfected cells; host or cells: CHO (CHO-D3, G418 selection)
Protocol: To determine the activation effect of the compounds on D3 receptor.
3. Experimental Method: • 1. Preparation of the buffer: 1*HBSS+20 mM HEPES+0.1% BSA+500 μM IBMX. • Complete medium: Ham's F12K+10% fetal bovine serum+1*penicillin-streptomycin+400 µg/mL G418. • 2. CHO-D3 cells were cultured in the complete medium at 37° C., 5% C02. After TrypLE digestion, the cells were resuspended in the experimental buffer, and seeded into a 384-well cell culture plate at a seeding density of 8000 cells per well. • 3. The experimental buffer (1*HBSS, 0.1% BSA, 20 mM HEPES and 500 μM IBMX) was prepared. The compound was diluted with the buffer. 2.5 μL of the compound solution was added to each well, and the plate was incubated at 37° C. for 10 minutes. The forskolin was diluted to 8 μM (8*) with the experimental buffer. 2.5 μL of the diluted 8*forskolin was added, and the plate was incubated at 37° C. for 30 minutes. cAMP-d2 and Anti-cAMP-Eu^3+ were thawed, and diluted by 20-fold with the lysis buffer. 10 μL of cAMP-d2 was added to the experimental well, followed by the addition of 10 μL of Anti-cAMP-Eu^3+. The reaction plate was centrifuged at 200 g for 30 s at room temperature, and left to stand at 25° C. for 1 h. Data was collected using Envision. 4. […]

5-HT2A receptor [5] = molecular target: T3, 5-HT2A receptor (Homo sapiens, UniProt P28223); experiment: Radioligand binding assay, 5-HT2A receptor ([3H]-Ketanserin); set-up: purchased PerkinElmer; conditions: human 5-HT2A receptor membrane, read-out: 5HT-2A Binding IC50
Protocol: The objective of this test example is to determine the affinity of the compounds for 5-HT2A receptor.
as §8, with “[^3H]-Ketanserin” for “[^3H]-methylspiperone”
as §9

5-HT2A receptor [6] = molecular target: T3, 5-HT2A receptor; experiment: Calcium ion mobility in cells stably expressing 5-HT2A receptors (Flp-In-CHO-5HT2A, FLIPR); type: cell-based; set-up: expressed in transfected cells; conditions: Flp-In-CHO-5HT2A stable pool, inhibition of 5HT response
Protocol: To determine the inhibitory effect of the compounds on 5-HT2A receptor.
3. […] Probenecid and BSA were added fresh on the day of the experiment. […] 4. Experimental Data Processing Method:
The calcium signal values were determined by FLIPR. The calculated output for each sampling time point in the experiment was the ratio of the 340/510 nm wavelength signals to 380/510 nm wavelength signals. The maximum minus minimum calculation was derived from the ratio signal curve. The percent inhibition rate and ten-point concentration data were fitted to the parametric nonlinear logistic equation by using GraphPad prism to calculate the IC50 values of the compound.

T1 sequence (P35462 whole entry): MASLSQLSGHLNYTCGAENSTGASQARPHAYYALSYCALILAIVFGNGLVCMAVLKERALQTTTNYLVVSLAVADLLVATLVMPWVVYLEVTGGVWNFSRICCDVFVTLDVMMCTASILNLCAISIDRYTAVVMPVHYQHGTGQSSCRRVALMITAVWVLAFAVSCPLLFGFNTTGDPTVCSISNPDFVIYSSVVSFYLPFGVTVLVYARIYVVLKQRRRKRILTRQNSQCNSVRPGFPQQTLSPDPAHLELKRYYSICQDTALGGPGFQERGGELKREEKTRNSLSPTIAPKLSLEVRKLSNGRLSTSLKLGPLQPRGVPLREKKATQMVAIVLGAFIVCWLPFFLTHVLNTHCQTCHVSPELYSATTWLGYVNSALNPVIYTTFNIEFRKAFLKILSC
T2 sequence (P35462 whole entry): as above
T3 sequence (P28223 whole entry): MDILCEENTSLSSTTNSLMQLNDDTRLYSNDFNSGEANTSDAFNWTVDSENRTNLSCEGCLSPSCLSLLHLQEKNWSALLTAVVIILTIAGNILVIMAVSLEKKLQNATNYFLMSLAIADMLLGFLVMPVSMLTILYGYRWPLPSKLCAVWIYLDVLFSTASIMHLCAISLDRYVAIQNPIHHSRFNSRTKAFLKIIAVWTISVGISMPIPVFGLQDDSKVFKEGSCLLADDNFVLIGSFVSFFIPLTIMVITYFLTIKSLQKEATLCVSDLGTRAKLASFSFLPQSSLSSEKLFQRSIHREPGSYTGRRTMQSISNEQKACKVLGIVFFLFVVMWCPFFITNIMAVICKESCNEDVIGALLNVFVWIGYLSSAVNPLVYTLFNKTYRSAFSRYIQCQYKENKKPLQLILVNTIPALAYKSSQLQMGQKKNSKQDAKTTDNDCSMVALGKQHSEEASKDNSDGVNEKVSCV

In the case of `O=C(NC1CC(CCN2CCN(c3cccc(Cl)c3Cl)CC2)C1)C1(O)CC1` (stereo not drawn) [Example 13, N-(3-(2-(4-(2,3-Dichlorophenyl)piperazin-1-yl)ethyl)cyclobutyl)-1-hydroxycyclopropane-1-carboxamide], the “Remaining (%, 120 min)” value [1] is reported as 63.0%, the half-life at 1 μM [1] is reported as 93.3 min and the microsomal CLint at 1 μM [1] is reported as 37.2 µL/min/mg.

In the case of `CC(C)(O)CC(=O)NC1CC(CCN2CCN(c3cccc(Cl)c3Cl)CC2)C1` (stereo not drawn) [Example 15, N-(3-(2-(4-(2,3-Dichlorophenyl)piperazin-1-yl)ethyl)cyclobutyl)-3-hydroxy-3-methylbutanamide], the “Remaining (%, 120 min)” value [1] is reported as 79.5%, the half-life at 1 μM [1] is reported as 189 min and the microsomal CLint at 1 μM [1] is reported as 18.3 µL/min/mg.

In the case of `CN(C)C(=O)N[C@H]1CC[C@H](CCN2CCN(c3cccc(Cl)c3Cl)CC2)CC1` [Cariprazine, reference compound], the “Remaining (%, 120 min)” value [2] is reported as 19.1%, the half-life at 1 μM [2] is reported as 52.7 min and the microsomal CLint at 1 μM [2] is reported as 26.3 µL/min/mg. The “Remaining (%, 120 min)” value [1] was 34.4%, the half-life at 1 μM [1] was 77.2 min and the microsomal CLint at 1 μM [1] was 18 µL/min/mg. For the same compound, the “Remaining (%, 120 min)” value [3] was 21.4%, the half-life at 1 μM [3] was 50.1 min and the microsomal CLint at 1 μM [3] was 27.7 µL/min/mg.

For `O=C(N[C@H]1C[C@H](CCN2CCN(c3cccc(Cl)c3Cl)CC2)C1)c1ncco1` [Example 20A, N-(Trans-3-(2-(4-(2,3-dichlorophenyl)piperazin-1-yl)ethyl)cyclobutyl)oxazole-2-carboxamide], the “Remaining (%, 120 min)” value [2] was 25.4%, the half-life at 1 μM [2] was 60 min and the microsomal CLint at 1 μM [2] was 23.1 µL/min/mg. The “Remaining (%, 120 min)” value [1] was 42.8%, the half-life at 1 μM [1] was 106 min and the microsomal CLint at 1 μM [1] was 13.1 µL/min/mg. The “Remaining (%, 120 min)” value [3] was 29.2%, the half-life at 1 μM [3] was 70.6 min and the microsomal CLint at 1 μM [3] was 19.6 µL/min/mg.

With `CN(C)C(=O)NC1CC(CCN2CCN(c3cccc4sccc34)CC2)C1` (stereo not drawn) [Example 6, 3-(3-(2-(4-(Benzo[b]thiophen-4-yl)piperazin-1-yl)ethyl)cyclobutyl)-1,1-dimethylurea] the “Remaining (%, 120 min)” value [1] was 61.2%, the half-life at 1 μM [1] was 76.3 min and the microsomal CLint at 1 μM [1] was 45.4 µL/min/mg.

`Cc1cc(C(=O)N[C@H]2C[C@H](CCN3CCN(c4cccc(Cl)c4Cl)CC3)C2)on1` [Example 22A] gave an IC50 [4] of 0.34 nM, an EC50 (D3 receptor) of 0.9 nM and an IC50 (5-HT2A receptor [5]) of 1.35 nM. The IC50 (5-HT2A receptor [6]) was 4.37 nM.

In the case of `Cc1ncc(C(=O)N[C@H]2C[C@H](CCN3CCN(c4cccc(Cl)c4Cl)CC3)C2)o1` [Example 24A], the IC50 [4] is reported as 0.33 nM, the EC50 (D3 receptor) is reported as 1.7 nM and the IC50 (5-HT2A receptor [5]) is reported as 1.8 nM. The IC50 (5-HT2A receptor [6]) was 4.28 nM.

In the case of `O=C(N[C@H]1C[C@H](CCN2CCN(c3cccc(Cl)c3Cl)CC2)C1)C1(O)CC1` [Example 13A, N-(Trans-3-(2-(4-(2,3-dichlorophenyl)piperazin-1-yl)ethyl)cyclobutyl)-1-hydroxycyclopropane-1-carboxamide], the “Remaining (%, 120 min)” value [1] is reported as 53.3%, the half-life at 1 μM [1] is reported as 139 min and the microsomal CLint at 1 μM [1] is reported as 10 µL/min/mg.

`CC(C)(O)C(=O)N[C@H]1C[C@H](CCN2CCN(c3cccc(Cl)c3Cl)CC2)C1` [Example 11A] showed an IC50 [4] of 0.95 nM, an EC50 (D3 receptor) of 0.4 nM and an IC50 (5-HT2A receptor [5]) of 41.5 nM. The IC50 (5-HT2A receptor [6]) was 39 nM.
